According to publication PMC10249623 (Environmental Science & Technology, 2023):
Like-named read-outs stand apart in the source and are kept apart here. Marks after values point to notes of the source that are not given here.

Assays:
[1] = Direct measurement of Kaw using the standard VPR-HS method; type: physicochemical; conditions: measured by the VPR-HS method in this study, 25 °C
From the text: Kaw values for five PFAS were directly measured using a standard VPR-HS method, as in the literature.[7],[8] The experimental procedure is similar to what has been described previously for KHxd/air([21]) and is summarized in SI-3.

[2] = Hexadecane/water partition coefficient, batch partition method; type: physicochemical; conditions: for log KHxd/w batch partition method mean: 25 °C, n = 5; for log KHxd/w with pure water lower than with 1 mM HCl solution by: preliminary experiments, pure water vs 1 mM HCl
[3] = Hexadecane/water partition coefficient, modified VPR-HS method; type: physicochemical; conditions: 25 °C
Method: KHxd/w was also measured with a modified version of the VPR-HS method; 20 mL headspace vials were filled with water and hexadecane with different volume ratios. The total liquid volume was always 20 mL. All vials received the same amount of the target compound. After equilibration at 25 °C, the headspace was injected into the GC/MS. […] Here, response linearity as well as no significant mass of the compound in the headspace and any other interface (e.g., vial wall, hexadecane/water interface, septum) was assumed. As α, m, and Vtot (=20 mL) are constant for a given compound, KHxd/w can be fitted on the data of PA vs VHxd. Theoretically, KHxd/w could be determined with a minimum of two VHxd conditions (e.g., 0 and 20 mL), whereas at least four VHxd values were prepared in this work.

[4] = Air/water partition coefficient via hexadecane/air/water thermodynamic cycle (eq 1); type: physicochemical; conditions: for log Kaw eq 1: 25 °C, KHxd/w divided by KHxd/air
Method: The objectives of this study are to obtain new experimental data for Kaw at 25 °C for a series of neutral PFAS and to evaluate Kaw prediction models. […] To circumvent the difficulty associated with direct measurement of Kaw, we determined Kaw indirectly by measuring the hexadecane/water partition coefficient (KHxd/w) and applying the hexadecane/air/water thermodynamic cycle: [drawing 1] 1 where KHxd/air is the hexadecane/air partition coefficient. KHxd/w can be measured more reliably than Kaw because gas phase quantification is not needed and hexadecane has a larger solubilization capacity than water, which minimizes the problem of third-phase sorption. […] The new Kaw data for 21 PFAS were compared to predictions by four models that are often used in environmental risk assessments.

[5] = Hexadecane/water partition coefficient, shared-headspace method; type: physicochemical; conditions: for log KHxd/w shared-headspace method mean: 25 °C, n = 5
Method: The method concept is based on the existing publications that used a shared-headspace system for salting-out experiments[26] and ecotoxicity tests.[27],[28] Hexadecane solution of PFAS was placed in a 350 μL insert hosted by a 1.5 mL GC vial. This small vial was put in a 10 mL headspace vial that contained 1 mL of water. The 10 mL vial was closed with a PTFE-lined septum and gently shaken at 25 °C for 24 h. During this time, the compound dissolved in hexadecane was partially transferred to water via the headspace until a three-phase partition equilibrium was reached between hexadecane, air, and water. Water was then sampled and immediately extracted with n-hexane for GC/MS analysis. The hexadecane phase was also analyzed, which confirmed 85–100% mass conservation (Table S3). KHxd/w was obtained from the measured concentration in water, as in the batch partition method. […] The shared-headspace method is useful for compounds with sufficient volatility (relatively high Kaw, low KHxd/air) and hydrophobicity (relatively high KHxd/w), as these properties ensure an efficient transfer from hexadecane to water via air and negligible concentration depletion in hexadecane. Therefore, nine PFAS that meet this requirement were measured by this method, while all eight sulfonamides and four short-chain FTOHs were not.
SI-1 Extended descriptions for experimental methods
Pure PFAS were dissolved in hexadecane either directly or using acetone as carrier solvent. Up to three PFAS were mixed in hexadecane and investigated simultaneously. The PFAS concentration in hexadecane was 0.1–2000 mg/L, depending on the expected KHxd/w and the sensitivity of the quantification method. The acetone content in hexadecane was up to 0.3% (v/v). This acetone should have largely partitioned into water during the partition experiment, where the final concentration in water was estimated to be < 0.3% (v/v). We assumed that this concentration of acetone in water does not have a significant influence on partition coefficients of PFAS. […]
The water phase was analyzed directly by liquid chromatography/mass spectrometry (LC/MS) (for PFBSA, PFHxSA, MeFBSA, MeFHxSA, MeFBSE), diluted with acetonitrile and analyzed with LC/MS (for PFOSA EtFHxSA, EtFHxSE), or liquid-liquid-extracted with n-hexane and analyzed by gas chromatography/mass spectrometry (GC/MS) (for all others). The hexadecane phase was back-extracted with water (for PFBSA, PFHxSA) or with 0.1 mM NaOH water (for PFOSA) and measured by LC/MS, or it was diluted with n-hexane by a factor of 100–500 and analyzed by GC/MS (for all others). […]
The 95% confidence interval (CI) of the mean (x) was calculated with the formula, x ± 2.78 SD/√5, where SD is the standard deviation, based on the t-distribution and n = 5. […]
PFHxSA, PFOSA, MeFBSA, MeFHxSA, and EtFHxSA were performed using 1 mM HCl aqueous solution […]
A shared headspace method was used to measure KHxd/w for nine PFAS. In this method, hexadecane solution of PFAS was prepared as described above and 300 μL was placed in a 350-μL glass insert

[6] = cited from earlier work
[7] = 1 mM HCl was used instead of pure water

Row | SMILES | log KHxd/w batch partition method mean ([2]; pure water) | log Kaw eq 1 [4] | log KHxd/w shared-headspace method mean [5] | other results
1 | OCC(F)(F)C(F)(F)C(F)(F)F [3:1 FTOH, 1H,1H-perfluorobutan-1-ol] |  |  |  | log Kaw VPR-HS [1]: –2.03 ^d
2 | OCCCC(F)(F)C(F)(F)C(F)(F)F [3:3 FTOH, 3-(perfluoropropyl)propan-1-ol] | 0.52 | –2.17 |  | log KHxd/w modified VPR-HS method mean [3]: 0.32; log Kaw VPR-HS [1]: –2.04 ^d
3 | FC(F)(F)C(F)(F)C(F)(F)C(F)(F)CCI [4:2 FTI, 1H,1H,2H,2H-perfluorohexyl iodide] |  | 1.60 | 4.93 | 
4 | C=C(C)C(=O)OCCC(F)(F)C(F)(F)C(F)(F)C(F)(F)F [4:2 FTMAC, 1H,1H,2H,2H-perfluorohexyl methacrylate] |  | 0.62 | 4.65 | log Kaw VPR-HS [1]: –0.14 ^d
5 | OCCC(F)(F)C(F)(F)C(F)(F)C(F)(F)F [4:2 FTOH, 1H,1H,2H,2H-perfluorohexan-1-ol] | 0.79 | –1.57 |  | log KHxd/w modified VPR-HS method mean [3]: 0.75; log Kaw VPR-HS [1]: –1.56; log Kaw VPR-HS or VP/S ([6]; 23 or 24 °C ref 12): −1.52; log Kaw VPR-HS or VP/S ([6]; literature value ref 7): −1.30; log Kaw VPR-HS or VP/S ([6]; literature value ref 8): −1.63; log Kaw VPR-HS or VP/S ([6]; literature value ref 9): −1.21
6 | OCCCCC(F)(F)C(F)(F)C(F)(F)C(F)(F)F [4:4 FTOH, 4-(perfluorobutyl)butan-1-ol] | 1.60 | –1.97 |  | log KHxd/w modified VPR-HS method mean [3]: 1.43; log Kaw VPR-HS [1]: –1.28 ^d
7 | CC(O)C(F)(F)C(F)(F)C(F)(F)C(F)(F)C(F)(F)F (stereo not shown) [5:2s FTOH, 1H,1H,1H,2H-perfluoroheptan-2-ol] | 2.00 | –0.15 | 2.04 | log KHxd/w modified VPR-HS method mean [3]: 1.55
8 | FC(F)(F)C(F)(F)C(F)(F)C(F)(F)C(F)(F)C(F)(F)CI [6:1 FTI, 1H,1H-perfluoroheptyl iodide] |  | 2.28 | 5.66 | 
9 | FC(F)C(F)(F)C(F)(F)C(F)(F)C(F)(F)C(F)(F)CI [6:1 FTI-7H, 1H,1H,7H-perfluoroheptyl iodide] |  | 0.70 | 4.62 | log KHxd/w lower than that of 6:1 FTI by ([5]; difference to 6:1 FTI): 1.0 log unit; log Kaw lower than that of 6:1 FTI by ([4]; difference to 6:1 FTI): 1.6 log units
10 | C=CC(=O)OCCC(F)(F)C(F)(F)C(F)(F)C(F)(F)C(F)(F)C(F)(F)F [6:2 FTAC, 1H,1H,2H,2H-perfluorooctyl acrylate] |  | 1.27 | 5.43 | 
11 | OCCC(F)(F)C(F)(F)C(F)(F)C(F)(F)C(F)(F)C(F)(F)F [6:2 FTOH, 1H,1H,2H,2H-perfluorooctan-1-ol] | 2.50 | –0.64 | 2.51 | log Kaw VPR-HS or VP/S ([6]; 23 or 24 °C ref 12): −0.44; log Kaw VPR-HS or VP/S ([6]; literature value ref 7): –1.47; log Kaw VPR-HS or VP/S ([6]; literature value ref 8): −0.56; log Kaw VPR-HS or VP/S ([6]; literature value ref 9): 0.37
12 | OCC(F)(F)C(F)(F)C(F)(F)C(F)(F)C(F)(F)C(F)(F)C(F)(F)F [7:1 FTOH, 1H,1H-perfluorooctan-1-ol] |  | –0.26 | 2.70 | 
13 | OCCC(F)(F)C(F)(F)C(F)(F)C(F)(F)C(F)(F)C(F)(F)C(F)(F)C(F)(F)F [8:2 FTOH, 1H,1H,2H,2H-perfluorodecan-1-ol] |  | 0.11 | 3.75 | log Kaw VPR-HS or VP/S ([6]; 23 or 24 °C ref 12): 0.96; log Kaw VPR-HS or VP/S ([6]; literature value ref 7): –1.82; log Kaw VPR-HS or VP/S ([6]; literature value ref 8): 0.58; log Kaw VPR-HS or VP/S ([6]; literature value ref 9): 0.31
14 | CCNS(=O)(=O)C(F)(F)C(F)(F)C(F)(F)C(F)(F)C(F)(F)C(F)(F)F [EtFHxSA, N-ethyl perfluorohexane sulfonamide] |  | –1.58 |  | log KHxd/w batch partition method mean [2, 7]: 2.95 ^c
15 | CCN(CCO)S(=O)(=O)C(F)(F)C(F)(F)C(F)(F)C(F)(F)C(F)(F)C(F)(F)F [EtFHxSE, N-ethyl perfluorohexane sulfonamidoethanol] | 2.76 | –3.02 |  | 
16 | CNS(=O)(=O)C(F)(F)C(F)(F)C(F)(F)C(F)(F)F [MeFBSA, N-methyl perfluorobutane sulfonamide] |  | –2.85 |  | log KHxd/w batch partition method mean [2, 7]: 0.82 ^c
17 | CN(CCO)S(=O)(=O)C(F)(F)C(F)(F)C(F)(F)C(F)(F)F [MeFBSE, N-methyl perfluorobutane sulfonamidoethanol] | 0.49 | –4.35 |  | 
18 | CNS(=O)(=O)C(F)(F)C(F)(F)C(F)(F)C(F)(F)C(F)(F)C(F)(F)F [MeFHxSA, N-methyl perfluorohexane sulfonamide] |  | –2.01 |  | log KHxd/w batch partition method mean [2, 7]: 2.25 ^c
19 | NS(=O)(=O)C(F)(F)C(F)(F)C(F)(F)C(F)(F)F [PFBSA, perfluorobutane sulfonamide] |  | –4.89 |  | log KHxd/w batch partition method mean [2, 7]: –1.15 ^c; log KHxd/w with pure water lower than with 1 mM HCl solution by [2]: 0.5–0.9 log units
20 | NS(=O)(=O)C(F)(F)C(F)(F)C(F)(F)C(F)(F)C(F)(F)C(F)(F)F [PFHxSA, perfluorohexane sulfonamide] |  | –3.94 |  | log KHxd/w batch partition method mean [2, 7]: 0.39 ^c; log KHxd/w with pure water lower than with 1 mM HCl solution by [2]: 0.5–0.9 log units
21 | NS(=O)(=O)C(F)(F)C(F)(F)C(F)(F)C(F)(F)C(F)(F)C(F)(F)C(F)(F)C(F)(F)F [PFOSA, perfluorooctane sulfonamide] |  | –3.04 |  | log KHxd/w batch partition method mean [2, 7]: 1.80 ^c
